The test system of series [1] is Staphylococcus aureus. Nature of the series: Antimicrobial activity against Staphylococcus aureus ATCC 29213 by measuring turbidity at 540 nm OD after 16 hrs. The series is classed as functional.
For series [2], the system named is Staphylococcus aureus. The series is described as follows: Antimicrobial activity against Staphylococcus aureus ATCC 29213 assessed as inhibition of visible growth incubated for 24 hrs. The series is classed as functional.
Series [3] has as its system Staphylococcus epidermidis. Nature of the series: Antimicrobial activity against Staphylococcus epidermidis ATCC 14990 by measuring turbidity after 16 hrs. The series is classed as functional.
For series [4], the system named is Staphylococcus epidermidis. Nature of the series: Antimicrobial activity against Staphylococcus epidermidis ATCC 14990 assessed as inhibition of visible growth incubated for 24 hrs. The class given is functional.
Series [5] concerns Escherichia coli. The series is described as follows: Antimicrobial activity against Escherichia coli ATCC 25922 by measuring turbidity after 16 hrs. The series is classed as functional.
The test system of series [6] is Escherichia coli. The series is described as follows: Antimicrobial activity against Escherichia coli ATCC 25922 assessed as inhibition of visible growth incubated for 24 hrs. The class given is functional.
Series [7] deals with Pseudomonas aeruginosa. Nature of the series: Antimicrobial activity against Pseudomonas aeruginosa ATCC 27853 by measuring turbidity after 16 hrs. The series is classed as functional.
Series [8] relates to Pseudomonas aeruginosa. The series is described as follows: Antimicrobial activity against Pseudomonas aeruginosa ATCC 27853 assessed as inhibition of visible growth incubated for 24 hrs. The class given is functional.
Series [9] has as its system Staphylococcus aureus. The series is described as follows: Antimicrobial activity against methicillin-resistant Staphylococcus aureus ATCC 43300 by measuring turbidity after 16 hrs. The class given is functional.
Series [10] has as its system Staphylococcus aureus. Nature of the series: Antimicrobial activity against methicillin-resistant Staphylococcus aureus ATCC 43300 assessed as inhibition of visible growth incubated for 24 hrs. The series is classed as functional.
Series [11] deals with Staphylococcus aureus. The series is described as follows: Bactericidal activity against planktonic phase of Staphylococcus aureus ATCC 29213 assessed as log reduction in bacterial colony forming units at 2 ug/ml incubated for 15 mins followed by plating on agar plate and measured after overnight incubation by time-kill kinetic assay relative to control. The class given is functional. Also on record: scale not given: the % may be the effect or the level left. The conditions noted are these: dose 2 µg/ml, 0.25 h.

For series [12], the system named is Staphylococcus aureus. Nature of the series: Bactericidal activity against planktonic phase of methicillin-resistant Staphylococcus aureus ATCC 43300 assessed as log reduction in bacterial colony forming units at 8 ug/ml incubated for 15 mins followed by plating on agar plate and measured after overnight incubation by time-kill kinetic assay relative to control. The series is classed as functional. Also on record: scale not given: the % may be the effect or the level left. The conditions noted are these: dose 8 µg/ml, 0.25 h.

Series [13] can be described thus: Hemolytic activity against Erythrocyte (unknown origin) at 4 ug/ml measured after 4 hrs by microplate reader analysis relative to control. The class given is ADME, cell-based. The conditions noted are these: human, erythrocytes, at 4 µg/mL, read-out: Activity.
The nature of series [14]: Hemolytic activity against Erythrocyte (unknown origin) at 16 ug/ml measured after 4 hrs by microplate reader analysis relative to control. The series is classed as ADME, cell-based. The conditions noted are these: human, erythrocytes, at 16 µg/mL, read-out: Activity.
A short description of series [15]: Cytotoxicity against mouse L929 cells assessed as cell viability at 8 or 16 ug/ml after 24 hrs by MTT assay relative to control. The series is classed as cell-based. The conditions noted are these: dose 8-16 µg/ml, read-out: Activity. Background: Formazan colour is commonly taken as a measure of viable cells.
Series [16] is described as follows: Cytotoxicity against mouse L929 cells assessed as cell viability at 32 ug/ml after 24 hrs by MTT assay relative to control. The series is classed as cell-based. The conditions noted are these: at 32 µg/mL, read-out: Activity.
The nature of series [17]: Cytotoxicity against mouse L929 cells assessed as cell viability at 64 ug/ml after 24 hrs by MTT assay relative to control. The series is classed as cell-based. The conditions noted are these: at 64 µg/mL, read-out: Activity.
The nature of series [18]: Cytotoxicity against mouse L929 cells assessed as cell viability at 128 ug/ml after 24 hrs by MTT assay relative to control. The series is classed as cell-based. The conditions noted are these: at 128 µg/mL, read-out: Activity.
Series [19] relates to Cell membrane. The series is described as follows: Induction of cytoplasmic membrane depolarization in Kcl - treated Escherichia coli DC2 assessed as increase in fluorescence intensity for a period of 600 sec by diSC3-5 dye based fluorescence microplate reader assay.
For series [20], the system named is Cell membrane. The series is described as follows: Induction of outer membrane permeabilization in Escherichia coli ATCC 25922 assessed as increase in fluorescence intensity at 4 ug/ml after 100 sec by NPN-dye based assay. The series is classed as subcellular. The conditions noted are these: dose 4.0 µg/ml.
Series [21] concerns Staphylococcus aureus. Nature of the series: Antibiofilm activity against 48 hrs pre-formed biofilm of Staphylococcus aureus ATCC 29213 assessed as reduction in biofilm viability at 64 ug/ml after 5 hrs relative to control. The series is classed as functional. The conditions noted are these: dose 64 µg/ml.
Series [22] concerns Staphylococcus aureus. Nature of the series: Antibiofilm activity against 48 hrs preformed biofilm of methicillin resistant Staphylococcus aureus ATCC 43300 assessed as reduction in biofilm viability at 128 ug/ml after 5 hrs relative to control. The class given is functional. The conditions noted are these: dose 128 µg/ml.
The subject of series [23] is Staphylococcus aureus. Nature of the series: Antibiofilm activity against Staphylococcus aureus ATCC 29213 assessed as inhibition of biofilm formation at 64 ug/ml after 48 hrs by crystal violet staining based assay relative to control. Also on record: scale not given: the % may be the effect or the level left. The class given is functional. The conditions noted are these: dose 64 µg/ml.

The subject of series [24] is Staphylococcus aureus. The series is described as follows: Antibiofilm activity against methicillin resistant Staphylococcus aureus ATCC 43300 assessed as inhibition of biofilm formation at 64 ug/ml after 48 hrs by crystal violet staining based assay relative to control. The series is classed as functional. Also on record: scale not given: the % may be the effect or the level left. The conditions noted are these: dose 64 µg/ml.

Series [25] has as its system Cell membrane. Nature of the series: Induction of cell membrane damage in methicillin-resistant Staphylococcus aureus ATCC 43300 assessed as leakage of cellular components at 16 ug/ml after 30 mins by transmission electron microscopy. The class given is subcellular. The conditions noted are these: dose 16.0 µg/ml.
Series [26] deals with Cell membrane. Nature of the series: Induction of cell membrane damage in Escherichia coli ATCC 25922 assessed as leakage of cellular components at 16 ug/ml after 30 mins by transmission electron microscopy. The series is classed as subcellular. The conditions noted are these: dose 16.0 µg/ml.
Series [27] deals with Staphylococcus aureus. Nature of the series: Antibiofilm activity against Staphylococcus aureus ATCC 29213 assessed as dead bacteria at 64 ug/ml incubated for 5 hrs by live/dead staining based confocal laser scanning microscopy. The class given is functional, organism-based. The conditions noted are these: dose 64.0 µg/ml.
Series [28] has as its system Staphylococcus aureus. The series is described as follows: Antibiofilm activity against methicillin-resistant Staphylococcus aureus ATCC 43300 assessed as dead bacteria at 64 ug/ml incubated for 5 hrs by live/dead staining based confocal laser scanning microscopy. The series is classed as functional, organism-based. The conditions noted are these: dose 64.0 µg/ml.

The source of these data is ChEMBL document CHEMBL4725395, “Lipoic acid modified antimicrobial peptide with enhanced antimicrobial properties” (Bioorg Med Chem, 2020).

Converted amounts (≈) assume the structure as drawn. The source made the active and inactive calls. The rule behind the calls is not given here. Residues, ends and D or L forms follow the SMILES beside them. ξ: configuration not given here. *: point of attachment. Lipoyl(6ξ) = O=C(CCCCC1CCSS1)*

One may read the MIC as the lowest concentration found to suppress growth. As a reminder, the MBC is the lowest tested concentration that kills the bacteria rather than only halting them.

Take `CC[C@H](C)[C@H](NC(=O)[C@H](CCCNC(=N)N)NC(=O)CCCCC1CCSS1)C(=O)N[C@@H](Cc1c[nH]c2ccccc12)C(=O)N[C@H](C(=O)N[C@H](C(=O)N[C@@H](Cc1c[nH]c2ccccc12)C(=O)N[C@@H](CCCNC(=N)N)C(=O)N[C@@H](CCCNC(=N)N)C(N)=O)[C@@H](C)CC)C(C)C` (some centres not stated) ({Lipoyl(6ξ)}-RIWVIWRR-NH2): the MIC against Staphylococcus aureus [1] turned out to be 1 µg/mL (≈ 0.729 µM); in series [3], 8 µg/mL (≈ 5.83 µM); in the series with Escherichia coli [5] it was 8 µg/mL (≈ 5.83 µM); in the series with Pseudomonas aeruginosa [7], 8 µg/mL (≈ 5.83 µM); in the series with Staphylococcus aureus [9], 4 µg/mL (≈ 2.92 µM). The MBC stood at 2 µg/mL (≈ 1.46 µM) in the series on Staphylococcus aureus [2]; 8 µg/mL (≈ 5.83 µM) in series [4]; 8 µg/mL (≈ 5.83 µM) in the series with Escherichia coli [6]; 8 µg/mL (≈ 5.83 µM) with Pseudomonas aeruginosa [8]; 8 µg/mL (≈ 5.83 µM) in the series with Staphylococcus aureus [10]. Moreover, the Activity in the series on Staphylococcus aureus [11] is 99%; in the series on Staphylococcus aureus [12] it was 99%; with Cell membrane [19], “Dose-dependent effect”; with Staphylococcus aureus [21], 60%; in the series on Staphylococcus aureus [22], 36.4%; in the series with Staphylococcus aureus [23] it was 12%. In the series on Staphylococcus aureus [24], the Activity is 25.6%. Also, in series [13], the hemolysis at 4 h, 4 ug/ml came to 0.97%. Further, the hemolysis at 4 h, 16 ug/ml in [14] is 4.58%. For the same molecule, the viability at 24 h in [15] is 100%. Besides, in series [16], the viability at 24 h, 32 ug/ml came out at 89.4%. Besides, in series [17], the viability at 24 h, 64 ug/ml was 84.9%. Besides, in [18], the viability at 24 h, 128 ug/ml worked out at 80.1%. The result in the series on Cell membrane [20], in the series on Cell membrane [25], with Cell membrane [26], in the series with Staphylococcus aureus [27] and in the series on Staphylococcus aureus [28] was Active.
As to H-RIWVIWRR-NH2, the minimum inhibitory concentration (MIC) against Staphylococcus aureus [1] was 2 µg/mL; in [3], 4 µg/mL; with Escherichia coli [5], 4 µg/mL; with Pseudomonas aeruginosa [7], 4 µg/mL; in the series on Staphylococcus aureus [9] it was 8 µg/mL. Also, the minimum bactericidal concentration (MBC) was 4 µg/mL in the series with Staphylococcus aureus [2]; 4 µg/mL in series [4]; 4 µg/mL with Escherichia coli [6]; 4 µg/mL with Pseudomonas aeruginosa [8]; 16 µg/mL in the series with Staphylococcus aureus [10]. The hemolysis at 4 h, 4 ug/ml in series [13] was 1.21%. In addition, the hemolysis at 4 h, 16 ug/ml in [14] worked out at 3.47%. The viability at 24 h in series [15] stood at 100%. For the same molecule, the viability at 24 h, 128 ug/ml in [18] is 85.7%. The Activity result with Cell membrane [19] was “Dose-dependent effect”; in the series on Staphylococcus aureus [21], 45%; in the series with Staphylococcus aureus [22] it was 40.2%. Further, the result in the series on Cell membrane [25] and in the series on Cell membrane [26] was Active.
